# Test results: paper PMC11845477, “Exploring the principles behind antibiotics with limited resistance” (Nature Communications, 2025)
# Read-outs that look alike come from different tables or passages of the source.
# Tests used:
# [1] = tested on: K. pneumoniae ATCC 10031 (SEN) and K. pneumoniae ATCC 700603 (MDR); test: Frequency-of-resistance (FoR) assay, relative MIC of mutants; format: cell-based, Klebsiella pneumoniae; conditions: for MIC: Klebsiella pneumoniae
# Method: (§1) The susceptibility of antibiotics to resistance development was evaluated in two strains of each bacterial species: a multidrug-resistant strain and an antibiotic-sensitive strain of Escherichia coli, Klebsiella pneumoniae, Acinetobacter baumannii, and Pseudomonas aeruginosa. To explore first-step resistance, we previously used a standard protocol for spontaneous frequency-of-resistance analysis (FoR assay) at multiple concentrations of each antibiotic[10],[28],[31]–[33]. […] For all other combinations, approximately 10^10 bacterial cells were exposed to one of each antibiotic on agar plates for two days at concentrations where the given strain is susceptible. We examined resistance levels by contrasting the minimum inhibitory concentration (MICs) of the mutated strains to the original wild-type bacterial strain (i.e., relative MIC).
# (§2) To estimate the frequency of spontaneous mutations that confer resistance in a microbial population, we conducted a frequency of resistance (FoR) assay following established protocols[10],[31]–[33]. […] Prior to plating, bacteria were grown overnight in MHB medium at 37 °C and 250 RPM, then centrifuged and washed in MHB. All experiments were performed in triplicate, and plates were incubated at 37 °C for 48 hours. Total colony-forming units (CFUs) were determined by plating appropriate dilutions onto antibiotic-free MHB agar. Resistance frequencies were calculated by dividing the number of resistant colonies by the initial viable cell count. From the plates with the highest antibiotic concentration, ten colonies were selected for MIC determination and whole-genome sequencing.
# (§3) A robotic liquid handling system was used to automatically prepare a 11 to 16-step serial dilution in 384-well microtiter plates (Greiner). A final concentration of 5 × 10^5 bacterial cells per mL were inoculated into each well containing 60 µL MHB medium. Bacterial cultures were incubated at 37 °C with continuous shaking (Infors shaker, 900 rpm with 3 mm throw) for 18 hours (2 replicates from each). Cell growth was monitored by measuring the optical density (OD600 values, using Biotek Synergy microplate reader). MIC was defined as the antibiotic concentration of complete growth inhibition (i.e., OD600 < 0.05). Relative MIC was calculated as follows:1 relativeMIC=MICevolved/MICancestor […]
# (§4) Supplementary Figure 3. Resistance levels following the frequency of resistance assay across bacterial strains. The level of resistance was measured as the fold change in relative MIC between evolved and ancestral strains. Data are grouped by bacterial strain (A. baumannii (AB), E. coli (EC), K. pneumoniae (KP), and P. aeruginosa (PA)) and categorized as either multidrug-resistant (MDR) or sensitive (SEN). Each data point represents a laboratory evolved line, and boxplots show the median, first and third quartiles, with whiskers indicating the 5th and 95th percentiles. […]
# (§5) analysis was performed using two-sided Dunn’s post-hoc test with Benjamini-Hochberg correction for multiple comparisons (**/ * indicates p < 0.01/ 0.05). For detailed information on antibiotic and bacterial species, see Supplementary Table 1. For mode of action groups, refer to Table 1. Source data are provided as a Source Data file.
# [2] = tested on: A. baumannii ATCC 17978 (SEN) and A. baumannii ATCC BAA-1605 (MDR); test: as above; format: cell-based, Acinetobacter baumannii; conditions: for Relative MIC: Acinetobacter baumannii ATCC 17978 (AB-SEN); for MIC: Acinetobacter baumannii, read-out: MIC of evolved line, Acinetobacter baumannii ATCC 17978 (AB-SEN)
# Method: as §1, §2, §3, §4, §5
# [3] = tested on: E. coli ATCC 25922 (SEN) and E. coli NCTC13846 (MDR); test: Adaptive laboratory evolution (ALE), relative MIC of evolved lines; format: cell-based, Escherichia coli; conditions: for Relative MIC (log10): EC-SEN (Escherichia coli ATCC 25922); for MIC of evolved line: EC-SEN (E. coli ATCC 25922)
# Description: Using the same set of bacterial strains, we initiated adaptive laboratory evolution with the aim to maximize the level of antibiotic resistance in the populations achieved during a longer, but fixed time period.
# An established protocol for adaptive laboratory evolution[46],[73] was followed to propagate populations with the highest resistance levels. Starting with an antibiotic concentration that caused approximately 50% growth inhibition, ten parallel populations for each antibiotic-ancestor strain combination were grown for 72 hours at 37 °C with continuous shaking (300 RPM). MHB broth medium was used unless stated otherwise. After each incubation, 20 µl of each culture was transferred to four new wells containing fresh medium with increasing antibiotic concentrations (0.5×, 1×, 1.5×, and 2.5× the previous concentration) in a chessboard layout to monitor potential cross-contamination. Growth was monitored by measuring OD600 using a Biotek Synergy 2 microplate reader, and only populations grown in the highest drug concentration with an OD600 > 0.2 were transferred further.
# as §3
# Supplementary Figure 4. Resistance levels following adaptive laboratory evolution across bacterial strains. The level of resistance was measured as the fold change in relative MIC between evolved and ancestral strains after ~60 days of adaptive laboratory evolution. Data are grouped by bacterial strain (A. baumannii (AB), E. coli (EC), K. pneumoniae (KP), and P. aeruginosa (PA)) and categorized as either multidrug-resistant (MDR) or sensitive (SEN). Each data point represents a laboratory evolved line, and boxplots show the median, first and third quartiles, with whiskers indicating the 5th and 95th percentiles.
# as §5, with “Statistical analysis” for “analysis”, “(****/ ***/ **/” for “(**/”, “< 0.0001/ 0.001/” for “<”
# (1 picture or pasted object on this page, not shown here)
# [4] = Klebsiella pneumoniae ATCC 10031 (KP-SEN), evolved line 1 versus ancestor
# [5] = Klebsiella pneumoniae ATCC 10031 (KP-SEN), evolved line 2 versus ancestor
# [6] = Klebsiella pneumoniae ATCC 10031 (KP-SEN), evolved line 3 versus ancestor
# [7] = Klebsiella pneumoniae ATCC 700603 (KP-MDR), evolved line 1 versus ancestor
# [8] = Klebsiella pneumoniae ATCC 700603 (KP-MDR), evolved line 2 versus ancestor
# [9] = Klebsiella pneumoniae ATCC 700603 (KP-MDR), evolved line 3 versus ancestor
# [10] = read-out: MIC of evolved line, Klebsiella pneumoniae ATCC 10031 (KP-SEN), evolved line 1
# [11] = read-out: MIC of evolved line, Klebsiella pneumoniae ATCC 10031 (KP-SEN), evolved line 2
# [12] = read-out: MIC of evolved line, Klebsiella pneumoniae ATCC 700603 (KP-MDR), evolved line 1
# [13] = read-out: MIC of evolved line, Klebsiella pneumoniae ATCC 700603 (KP-MDR), evolved line 2
# [14] = read-out: MIC of evolved line, Klebsiella pneumoniae ATCC 700603 (KP-MDR), evolved line 3
compound,measurement,setting,value
CN[C@@H]1[C@@H](O[C@H]2O[C@H](CO)[C@@H](N)[C@H](O)[C@H]2O)OC2C[C@@H](N)[C@@H](O[C@H]3[C@H](O)[C@@H](O)[C@H](N)C[C@@H]3N)OC2[C@@H]1O (stereo partly drawn) [Apramycin],Relative MIC,[1]; [4],8
same,Relative MIC,[1]; [5],8
same,Relative MIC,[1]; [6],2
same,Relative MIC,[1]; [7],2
same,Relative MIC,[1]; [8],2
same,Relative MIC,[1]; [9],1
same,MIC,[1]; [10],16 µg/mL
same,MIC,[1]; [11],16 µg/mL
same,MIC,[1]; [12],8 µg/mL
same,MIC,[1]; [13],8 µg/mL
same,Relative MIC,[2]; evolved line 1 versus ancestor,8
same,Relative MIC,[2]; evolved line 2 versus ancestor,16
same,Relative MIC,[2]; evolved line 3 versus ancestor,8
same,MIC,[2]; evolved line 1,32 µg/mL
same,MIC,[2]; evolved line 2,64 µg/mL
same,MIC,[2]; evolved line 3,32 µg/mL
Nc1nc(-n2cc(C(=O)O)c(=O)c3cc(F)c(N4CC(O)C4)c(Cl)c32)c(F)cc1F [Delafloxacin],Relative MIC,"[3]; EC-SEN (ATCC 25922), evolved line 1, MIC of evolved line / MIC of ancestor",128
same,Relative MIC,"[3]; EC-SEN (ATCC 25922), evolved line 2, MIC of evolved line / MIC of ancestor",1024
same,Relative MIC,"[3]; EC-SEN (ATCC 25922), evolved line 3, MIC of evolved line / MIC of ancestor",512
same,Relative MIC,"[3]; EC-SEN (ATCC 25922), evolved line 4, MIC of evolved line / MIC of ancestor",512
same,Relative MIC,"[3]; EC-SEN (ATCC 25922), evolved line 5, MIC of evolved line / MIC of ancestor",128
same,Relative MIC,"[3]; EC-SEN (ATCC 25922), evolved line 6, MIC of evolved line / MIC of ancestor",1024
same,Relative MIC,"[3]; EC-SEN (ATCC 25922), evolved line 7, MIC of evolved line / MIC of ancestor",2048
same,Relative MIC,"[3]; EC-SEN (ATCC 25922), evolved line 8, MIC of evolved line / MIC of ancestor",256
same,Relative MIC,"[3]; EC-SEN (ATCC 25922), evolved line 9, MIC of evolved line / MIC of ancestor",2048
same,Relative MIC,"[3]; EC-SEN (ATCC 25922), evolved line 10, MIC of evolved line / MIC of ancestor",512
same,Relative MIC (log10),[3]; evolved line 2 adapted to the named antibiotic,3.0103
same,Relative MIC (log10),[3]; evolved line 6 adapted to the named antibiotic,3.0103
same,Relative MIC (log10),[3]; evolved line 7 adapted to the named antibiotic,3.311
same,Relative MIC (log10),[3]; evolved line 9 adapted to the named antibiotic,3.311
same,Relative MIC (log10),[3]; evolved line 10 adapted to the named antibiotic,2.709
same,Relative MIC,"[3]; Escherichia coli ATCC 25922 (EC-SEN), evolved line 1",128
same,Relative MIC,"[3]; Escherichia coli ATCC 25922 (EC-SEN), evolved line 2",1024
same,Relative MIC,"[3]; Escherichia coli ATCC 25922 (EC-SEN), evolved line 3",512
same,Relative MIC,"[3]; Escherichia coli ATCC 25922 (EC-SEN), evolved line 4",512
same,Relative MIC,"[3]; Escherichia coli ATCC 25922 (EC-SEN), evolved line 5",128
same,Relative MIC,"[3]; Escherichia coli ATCC 25922 (EC-SEN), evolved line 6",1024
same,Relative MIC,"[3]; Escherichia coli ATCC 25922 (EC-SEN), evolved line 7",2048
same,Relative MIC,"[3]; Escherichia coli ATCC 25922 (EC-SEN), evolved line 8",256
same,Relative MIC,"[3]; Escherichia coli ATCC 25922 (EC-SEN), evolved line 9",2048
same,Relative MIC,"[3]; Escherichia coli ATCC 25922 (EC-SEN), evolved line 10",512
same,Relative MIC,[1]; [4],32
same,Relative MIC,[1]; [5],64
same,Relative MIC,[1]; [6],32
same,Relative MIC,[1]; [7],4
same,Relative MIC,[1]; [8],4
same,Relative MIC,[1]; [9],4
same,MIC,[1]; [10],0.0625 µg/mL
same,MIC,[1]; [11],0.125 µg/mL
same,MIC,"[1]; read-out: MIC of evolved line, Klebsiella pneumoniae ATCC 10031 (KP-SEN), evolved line 3",0.0625 µg/mL
same,MIC,[1]; [12],4 µg/mL
same,MIC,[1]; [13],4 µg/mL
same,MIC,[1]; [14],4 µg/mL
same,Relative MIC,[2]; evolved line 1 versus ancestor,8
same,Relative MIC,[2]; evolved line 2 versus ancestor,4
same,Relative MIC,[2]; evolved line 3 versus ancestor,8
same,MIC,[2]; evolved line 1,0.5 µg/mL
same,MIC,[2]; evolved line 2,0.25 µg/mL
same,MIC,[2]; evolved line 3,0.5 µg/mL
COc1c(N2C[C@@H]3CCCN[C@@H]3C2)c(F)cc2c(=O)c(C(=O)O)cn(C3CC3)c12 [Moxifloxacin],MIC,[1]; [10],0.25 µg/mL
same,MIC,[1]; [12],4 µg/mL
same,MIC,[1]; [13],4 µg/mL
same,MIC,[1]; [14],4 µg/mL
same,MIC,[2]; evolved line 1,0.5 µg/mL
same,MIC,[2]; evolved line 2,2 µg/mL
same,MIC,[2]; evolved line 3,1 µg/mL
Tridecaptin M152-P3,MIC of evolved line,[3]; evolved line 1 of the given antibiotic,32 µg/mL
same,MIC of evolved line,[3]; evolved line 2 of the given antibiotic,64 µg/mL
same,MIC of evolved line,[3]; evolved line 3 of the given antibiotic,32 µg/mL
same,MIC of evolved line,[3]; evolved line 4 of the given antibiotic,32 µg/mL
same,MIC of evolved line,[3]; evolved line 6 of the given antibiotic,32 µg/mL
same,MIC of evolved line,[3]; evolved line 7 of the given antibiotic,32 µg/mL
same,MIC of evolved line,[3]; evolved line 8 of the given antibiotic,32 µg/mL
same,MIC of evolved line,[3]; evolved line 9 of the given antibiotic,32 µg/mL
same,MIC of evolved line,[3]; evolved line 10 of the given antibiotic,64 µg/mL
same,MIC of evolved line,"[1]; Klebsiella pneumoniae ATCC 10031 (KP-SEN), evolved line 1",16 µg/mL
same,MIC of evolved line,"[1]; Klebsiella pneumoniae ATCC 10031 (KP-SEN), evolved line 2",8 µg/mL
same,MIC of evolved line,"[1]; Klebsiella pneumoniae ATCC 10031 (KP-SEN), evolved line 3",16 µg/mL
